Assay results from patent US8921358B2, “Apoptosis signal-regulating kinase 1 inhibitors” (Takeda Pharmaceutical Company Limited, priority 2008, dated 2014).

molecular target: T1, human ASK1 (Homo sapiens, UniProt Q99683); experiment: Scintillation assay measuring inhibition of ASK1 phosphorylation of myelin basic protein; assay type: biochemical; details: active ASK1 protein 30 ng, myelin basic protein 1 μg, [γ-32P]ATP, room temperature 30 min; values given as ranges; read-out: Enzyme Activity IC50
T1 construct: a 2.2 kb DNA fragment containing an ASK1 gene was recovered from the gel; made in house; host or cells: Sf-21 insect cells, recombinant baculovirus (pFASTBAC1, Bac-to-Bac)
T1 sequence (Q99683 649-1374 limits assumed): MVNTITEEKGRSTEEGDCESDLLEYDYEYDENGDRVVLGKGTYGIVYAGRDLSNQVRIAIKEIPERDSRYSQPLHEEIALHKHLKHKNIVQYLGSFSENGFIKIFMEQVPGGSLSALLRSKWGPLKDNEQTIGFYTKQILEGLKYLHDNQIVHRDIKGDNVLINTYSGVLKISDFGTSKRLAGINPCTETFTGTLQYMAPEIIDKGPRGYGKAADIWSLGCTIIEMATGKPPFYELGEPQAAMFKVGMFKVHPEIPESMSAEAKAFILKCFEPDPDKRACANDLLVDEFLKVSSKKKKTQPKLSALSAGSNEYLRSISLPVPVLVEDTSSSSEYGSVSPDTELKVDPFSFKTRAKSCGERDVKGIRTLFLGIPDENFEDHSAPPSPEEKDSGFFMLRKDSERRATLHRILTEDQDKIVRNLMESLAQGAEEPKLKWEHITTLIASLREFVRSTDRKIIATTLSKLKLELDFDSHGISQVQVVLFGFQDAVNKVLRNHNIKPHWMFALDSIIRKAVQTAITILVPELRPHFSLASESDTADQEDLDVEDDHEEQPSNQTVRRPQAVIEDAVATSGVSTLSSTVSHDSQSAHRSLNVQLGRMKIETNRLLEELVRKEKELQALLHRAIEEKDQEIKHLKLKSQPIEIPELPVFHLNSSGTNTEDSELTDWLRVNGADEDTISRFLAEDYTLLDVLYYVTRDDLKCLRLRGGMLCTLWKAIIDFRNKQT
Experimental: Cloning of cDNA encoding human ASK1 was conducted by PCR using primers, 5′-[…] AGAGAAGGGGA-3′ (SEQ ID NO: 1) and 5′-[…]-3′ (SEQ ID NO: 2), from human heart cDNA library (Becton, Dickinson and Company). The PCR product was subjected to agarose gel (1%) electrophoresis, a 2.2 kb DNA fragment containing an ASK1 gene was recovered from the gel, and then digested with restriction enzymes, NotI and SalI, and inserted into a plasmid pFASTBAC1 (Invitrogen) to prepare a plasmid pFB-ASK1. The insert was verified by sequencing. Recombinant baculovirus was prepared according to the procedure of the Bac-to-Bac baculovirus expression system (Invitrogen).
Sf-21 cells were seeded to achieve 1×10^6 cells/mL in 100 mL of Sf-900 II SFM medium (Invitrogen) which contains 10% fetal calf serum and then cultured at 27° C. for 24 hrs. To express ASK1 in cells, 0.15 mL of the recombinant baculovirus virus stock was added to cells, and the then cultured for 60 hrs. The cells were separated from the culture solution by centrifugation at 3000 rpm for 10 min and washed once with PBS. The cells were suspended in 10 mL of lysis buffer (25 mM HEPES (pH 7.5), 1% Triton X, 130 mM NaCl, 1 mM EDTA, 1 mM DTT, 25 mM β-glycerophosphate, Protease inhibitor complete (Roche), 1 mM sodium orthovanadate) and ruptured by four times of treatment with a homogenizer (POLYTRON) at 20000 rpm for 30 seconds. Active ASK1 protein was purified from a supernatant obtained by centrifugal separation at 40000 rpm for 45 min using anti-FLAG M2 Affinity Gel (Sigma).
The test compounds (2.5 μl) dissolved in DMSO were added to wells containing 37.5 μl of the reaction solution (25 mM HEPES (pH 7.5), 10 mM magnesium acetate, 1 mM DTT) including 30 ng of active ASK1 protein and 1 μg of myelin basic protein (Wako), and incubated at room temperature for 5 min. To start the reaction, 10 μL of ATP solution (2.5 μM ATP, 0.1 μCi [γ-^32P]ATP) was added to wells. After incubating at room temperature for 30 min, the reaction was terminated by adding 50 μl of 20% TCA solution. The reaction solution was incubated at 4° C. for 30 min and an acid-insoluble fraction was transferred onto a GF/C filter (Packard) with Cell Harvester (Packard), and washed with 250 mM phosphoric acid. After drying at 45° C. for 60 min., 40 μL of Microscint 0 (Packard) was added and the radioactivity was measured with TopCount (Packard). The concentrations (IC50 value) of the test compounds necessary for 50% inhibition of kinase activity were calculated by PRISM 3.0 (Graphpad Software).
The enzyme activities of selected compounds of the present invention against ASK1 were determined using the assay disclosed in Example A and B. The resulted pIC50 values are reported in Table 1.

| IC50 [nM] | Compound |
| --- | --- |
| > 1000 | Cc1ccc(-c2cc(N)nc3ccnn23)cc1 [Compound 174, 7-p-tolylpyrazolo[1,5-a]pyrimidin-5-amine] |
| 100 to 1000 | CC(C)(O)c1ccc(C(=O)Nc2cc(N3CCN(S(C)(=O)=O)CC3)n3nccc3n2)cc1 [Compound 90, 4-(2-hydroxypropan-2-yl)-N-(7-(4-(methylsulfonyl)piperazin-1-yl)pyrazolo[1,5-a]pyrimidin-5-yl)benzamide] |
| 100 to 1000 | CC(C)(O)c1ccc(C(=O)Nc2cc(N3CCC[C@H](C(N)=O)C3)n3nccc3n2)cc1 [Compound 85, (S)-1-(5-(4-(2-hydroxypropan-2-yl)benzamido)pyrazolo[1,5-a]pyrimidin-7-yl)piperidine-3-carboxamide] |
| < 100 | CC(C)(C)c1ccc(C(=O)Nc2cc(-c3cccc(CO)c3)n3nccc3n2)cc1 [Compound 5, 4-tert-butyl-N-(7-(3-(hydroxymethyl)phenyl)pyrazolo[1,5-a]pyrimidin-5-yl)benzamide] |
| 100 to 1000 | CC(C)(O)c1ccc(C(=O)Nc2cc(-c3cccc(CC#N)c3)n3nccc3n2)cc1 [Compound 21, N-(7-(3-(cyanomethyl)phenyl)pyrazolo[1,5-a]pyrimidin-5-yl)-4-(2-hydroxypropan-2-yl)benzamide] |
| 100 to 1000 | CC(C)(C)c1ccc(C(=O)Nc2cc(N3CCC[C@H](O)C3)n3nccc3n2)cc1 [Compound 75, (S)-4-tert-butyl-N-(7-(3-hydroxypiperidin-1-yl)pyrazolo[1,5-a]pyrimidin-5-yl)benzamide] |
| 100 to 1000 | CC(C)(O)c1ccc(C(=O)Nc2cc(N3CCC[C@@H]3CO)n3nccc3n2)cc1 [Compound 68, (R)—N-(7-(2-(hydroxymethyl)pyrrolidin-1-yl)pyrazolo[1,5-a]pyrimidin-5-yl)-4-(2-hydroxypropan-2-yl)benzamide] |
| < 100 | COc1ccc(-c2cc(NC(=O)c3ccc(C(C)(C)O)cc3)nc3ccnn23)cc1 [Compound 19, 4-(2-Hydroxypropan-2-yl)-N-(7-(4-methoxyphenyl)pyrazolo[1,5-a]pyrimidin-5-yl)benzamide] |
| 100 to 1000 | CC(=O)Nc1ccc(-c2cc(NC(=O)c3ccc(C(C)(C)C)cc3)nc3ccnn23)cn1 [Compound 14, N-(7-(6-Acetamidopyridin-3-yl)pyrazolo[1,5-a]pyrimidin-5-yl)-4-tert-butylbenzamide] |
| > 1000 | Nc1cc(-c2cccs2)n2nccc2n1 [Compound 175, 7-(thiophen-2-yl) pyrazolo[1,5-a]pyrimidin-5-amine] |
| < 100 | Cc1cc2nc(NC(=O)[C@@H]3C[C@H]3c3ccc(F)cc3)cc(-c3ccccc3)n2n1 (racemic) [Compound 359, trans-2-(4-Fluorophenyl)-N-(2-methyl-7-phenylpyrazolo[1,5-a]pyrimidin-5-yl)cyclopropanecarboxamide] |
| 100 to 1000 | CC(C)(O)c1ccc(C(=O)Nc2cc(-c3ccc(C(F)(F)F)cc3)n3nccc3n2)cc1 [Compound 24, 4-(2-hydroxypropan-2-yl)-N-(7-(4-(trifluoromethyl)phenyl)pyrazolo[1,5-a]pyrimidin-5-yl)benzamide] |
| < 100 | Cc1cc2nc(NC(=O)c3ccc(C(C)(C)C)cc3)cc(-c3ccc(F)c(CO)c3)n2n1 [Compound 4, 4-tert-butyl-N-(7-(4-fluoro-3-(hydroxymethyl)phenyl)-2-methylpyrazolo[1,5-a]pyrimidin-5-yl)benzamide] |
| < 100 | CC(C)(C)c1ccc(C(=O)Nc2cc(-c3ccc(C(N)=O)cc3)n3nccc3n2)cc1 [Compound 42, 4-tert-butyl-N-(7-(4-carbamoylphenyl)pyrazolo[1,5-a]pyrimidin-5-yl)benzamide] |
| 100 to 1000 | CC(C)(O)c1ccc(C(=O)Nc2cc(N3CCC[C@H]3CO)n3nccc3n2)cc1 [Compound 67, (S)—N-(7-(2-(hydroxymethyl)pyrrolidin-1-yl)pyrazolo[1,5-a]pyrimidin-5-yl)-4-(2-hydroxypropan-2-yl)benzamide] |
| < 100 | CC(C)(C)c1ccc(C(=O)Nc2cc(N3CCCCC3CCO)n3nccc3n2)cc1 (centres unmarked) [Compound 105, 4-tert-butyl-N-(7-(2-(2-hydroxyethyl)piperidin-1-yl)pyrazolo[1,5-a]pyrimidin-5-yl)benzamide] |
| < 100 | COc1cccc(-c2cc(NC(=O)c3ccc(C(C)(C)C)cc3)nc3ccnn23)c1 [Compound 15, 4-tert-Butyl-N-(7-(3-methoxyphenyl)pyrazolo[1,5-a]pyrimidin-5-yl)benzamide] |
| 100 to 1000 | Cc1cc2nc(NC(=O)c3ccc(C(C)(C)CO)cc3)cc(N3CCC[C@H]3CO)n2n1 [Compound 95, (S)-4-(1-hydroxy-2-methylpropan-2-yl)-N-(7-(2-(hydroxymethyl)pyrrolidin-1-yl)-2-methylpyrazolo[1,5-a]pyrimidin-5-yl)benzamide] |
| < 100 | CC(C)(C)c1ccc(C(=O)Nc2cc(N3CCCC(C(N)=O)C3)n3nccc3n2)cc1 (centres unmarked) [Compound 104, 1-(5-(4-tert-butylbenzamido)pyrazolo[1,5-a]pyrimidin-7-yl)piperidine-3-carboxamide] |
| > 1000 | CC(C)(O)c1ccc(C(=O)Nc2cc(N3CCn4cnnc4C3)n3nccc3n2)cc1 [Compound 91, N-(7-(5,6-dihydro-[1,2,4]triazolo[4,3-a]pyrazin-7(8H)-yl)pyrazolo[1,5-a]pyrimidin-5-yl)-4-(2-hydroxypropan-2-yl)benzamide] |
| < 100 | CC(C)(C)c1ccc(C(=O)Nc2cc(-c3cccc(CCO)c3)n3nccc3n2)cc1 [Compound 10, 4-tert-butyl-N-(7-(3-(2-hydroxyethyl)phenyl)pyrazolo[1,5-a]pyrimidin-5-yl)benzamide] |
| < 100 | CC(C)(C)c1ccc(C(=O)Nc2cc(-c3cccs3)n3nccc3n2)cc1 [Compound 2, 4-tert-butyl-N-(7-(thiophen-2-yl)pyrazolo[1,5-a]pyrimidin-5-yl)benzamide] |
| < 100 | CC(=O)NC1CCN(c2cc(NC(=O)[C@@H]3C[C@H]3c3ccccc3)nc3cc(C)nn23)CC1 [Compound 356, (1R,2R)—N-(7-(4-acetamidopiperidin-1-yl)-2-methylpyrazolo[1,5-a]pyrimidin-5-yl)-2-phenylcyclopropanecarboxamide] |
| < 100 | CC(C)(C)c1ccc(C(=O)Nc2cc(N3CCC(O)CC3)n3nccc3n2)cc1 [Compound 112, 4-tert-butyl-N-(7-(4-hydroxypiperidin-1-yl)pyrazolo[1,5-a]pyrimidin-5-yl)benzamide] |
| < 100 | CC(C)(C)c1ccc(C(=O)Nc2cc(N3CCc4ccccc4C3)n3nccc3n2)cc1 [Compound 66, 4-tert-butyl-N-(7-(3,4-dihydroisoquinolin-2(1H)-yl)pyrazolo[1,5-a]pyrimidin-5-yl)benzamide] |
| 100 to 1000 | CC(C)(O)c1ccc(C(=O)Nc2cc(N3CCCCC3CCO)n3nccc3n2)cc1 (centres unmarked) [Compound 74, N-(7-(2-(2-hydroxyethyl)piperidin-1-yl)pyrazolo[1,5-a]pyrimidin-5-yl)-4-(2-hydroxypropan-2-yl)benzamide] |
